Results reported in patent US8192935B2, “Methods for assessing cisplatin resistance, disease progression, and treatment efficacy in ovarian cancer as related to MetAP2 expression” (The Penn State Research Foundation, priority 2003, dated 2012).
Like-named read-outs stand apart in the source and are kept apart here.

Key:
[1] = test system: human colon cancer; conditions: Tanaka et al., 1995; cited from earlier work
[2] = target: MetAP-2 (Homo sapiens, UniProt P50579); conditions: Griffith et al.; cited from earlier work
Sequence of MetAP-2 (Homo sapiens, UniProt P50579) (P50579 whole entry, species assumed): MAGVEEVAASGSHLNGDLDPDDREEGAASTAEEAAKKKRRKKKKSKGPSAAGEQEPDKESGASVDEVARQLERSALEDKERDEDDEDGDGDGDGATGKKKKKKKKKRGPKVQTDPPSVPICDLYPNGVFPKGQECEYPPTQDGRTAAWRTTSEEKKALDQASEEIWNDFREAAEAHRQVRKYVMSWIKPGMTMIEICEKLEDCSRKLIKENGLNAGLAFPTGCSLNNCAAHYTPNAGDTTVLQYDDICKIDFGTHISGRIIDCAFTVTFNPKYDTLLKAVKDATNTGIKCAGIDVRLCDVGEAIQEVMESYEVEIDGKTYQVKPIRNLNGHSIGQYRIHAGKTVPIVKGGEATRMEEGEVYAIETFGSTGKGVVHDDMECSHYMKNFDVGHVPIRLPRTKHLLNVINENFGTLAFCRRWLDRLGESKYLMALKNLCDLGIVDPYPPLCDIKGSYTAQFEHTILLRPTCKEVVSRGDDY

[3] = test system: MetAP-2; conditions: several different cell types; Wang et al., 2000; cited from earlier work
[4] = test system: OVCA 429 cells; conditions: for 429: increased sensitivity to cis-platin: OVCA 429 cells with specific siRNA
[5] = test system: MetAP-2 messenger RNA; test: siRNA knockdown, quantitative real-time PCR; conditions: OVCA 429 (FIG. 44)
Experimental: The reaction mixture was then incubated at 42° C. for 60 minutes. cDNA dilutions from 1:4 to 1:256 were prepared. […] Green PCR Master Mix (Qiagen), 0.3 μM of forward primer, 0.3 μM of reverse primer, and RNase free water were added to a final volume of 45 μl.
Sequence detection was determined using the ABI Prism 7700 (Applied Biosystems, Inc., Foster City, Calif.) sequence detection system or the MJ Research (Waltham, Mass.) Opticon II system as follows: PCR initial activation step was carried out for 15 minutes at 95° C.; samples were denatured for 15 seconds at 94° C., annealed for 30 seconds at 53° C. (55° C. when the Opticon II system was used), and extended for 30 seconds at 72° C. (data was acquired during this step); the PCR reaction was repeated for 50 cycles. A melting curve analysis was prepared by adding on the following steps: 15 seconds at 95° C., 20 seconds at 60° C., and 20 seconds at 95° C.
The siRNA experiments described herein were conducted using the siPORT Lipid protocol (Ambion). […]
Cells were transfected with the siRNA constructs following instruction from the supplier (Ambion). […] The OD260 readings of siRNA were performed in duplicate at a 1:100 dilution. The readings were averaged, then multiplied by the dilution factor and then by multiplied by 40 (the OD260of 1 is equal to 40 μg/ml of RNA) to get the final concentration of siRNA in μg/ml. […]

[6] = test system: NM23-D (BC004880); test: siRNA-mediated knockdown of gene expression; type: cell-based, human; conditions: OVCA 429 cells
[7] = test system: OVCAR-3 cells; test: MTT assay, cis-platin sensitivity with siRNA; type: cell-based, human; conditions: OVCAR-3 cells with specific siRNA
[8] = test system: RNPS1 (AF015608); test: siRNA-mediated knockdown of gene expression; type: cell-based, human; conditions: ovarian cancer cell lines
[9] = test system: S100A11 message; test: siRNA knockdown of gene expression; type: cell-based, human; conditions: OVCA 429 (FIG. 57)
[10] = test system: SAPK/Erk1 (L36870); test: siRNA-mediated knockdown of gene expression; type: cell-based, human; conditions: ovarian cancer cell lines
[11] = test system: SRB1/CLA1/CD3611 (BCO22087); test: siRNA-mediated knockdown of gene expression; type: cell-based, human; conditions: ovarian cancer cell lines
[12] = test system: WDR1 (AB010427); test: siRNA-mediated knockdown of gene expression; type: cell-based, human; conditions: OVCA 429 cells
[13] = test system: eEF1ε (BC005291); test: siRNA-mediated knockdown of gene expression; type: cell-based, human; conditions: ovarian cancer cell lines
[14] = test system: e-IF2Bε (BC013590); test: siRNA-mediated knockdown of gene expression; type: cell-based, human; conditions: ovarian cancer cell lines

Compound: CO[C@@H]1[C@H](OC(=O)NC(=O)CCl)CC[C@]2(CO2)[C@H]1[C@@]1(C)O[C@@H]1CC=C(C)C [TNP-470]
- hepatic metastasis of human colon cancer [1]: can be prevented
- inhibition of the methionine aminopeptidase activity of MetAP-2 [2]: covalently binds to and inhibits

Compound: CO[C@@H]1[C@H](OC(=O)/C=C/C=C/C=C/C=C/C(=O)O)CC[C@]2(CO2)[C@H]1[C@@]1(C)O[C@@H]1CC=C(C)C [fumagillin]
- expression of MetAP-2 after treatment [3]: increased expression of MetAP-2
- inhibition of the methionine aminopeptidase activity of MetAP-2 [2]: covalently binds to and inhibits
- effect on the action of cis-platin ([4]; OVCA 429, 0.1 μg/ml fumagillin, 4 hours): enhancement of the effect of cis-platin
- effect on the action of cis-platin ([4]; OVCA 429, 0.1 μg/ml fumagillin, 8 hours): enhancement of the effect of cis-platin
- effect on the action of cis-platin ([4]; OVCA 429, 0.1 μg/ml fumagillin, regardless of the length of incubation time (FIGS. 41 and 42)): enhancement of the effect of cis-platin
- effect on the action of cis-platin ([4]; OVCA 429, 10 μg/ml fumagillin, regardless of the length of incubation time (FIGS. 41 and 42)): opposite effect
- cell survival with fumagillin alone ([4]; OVCA 429, very high concentrations of fumagillin, 4 hours (FIG. 40)): up to 80%

Compound: MetAP-2 siRNA #2: siRNA to MetAP-2; target sequence AAGCA CAT CGA CAA GTT AGA A (guide AAGCACATCGACAAGTTAGAA; target site or template, no part of the molecule; listed as DNA, chemistry not given here; listed as Homo Sapiens)
- levels of MetAP-2 expression [5]: did not result in a reduction

Compound: MetAP-2 siRNA #3: siRNA to MetAP-2; target sequence AAACA GTG CCG ATT GTG AAA G (guide AAACAGTGCCGATTGTGAAAG; target site or template, no part of the molecule; listed as DNA, chemistry not given here; listed as Homo Sapiens)
- levels of MetAP-2 expression [5]: did not result in a reduction

Compound: NM23D siRNA #3: siRNA to NM23-D; target sequence AATGTCATCCACGCCAGCGAC (guide AATGTCATCCACGCCAGCGAC; target site or template, no part of the molecule; listed as DNA, chemistry not given here; listed as Homo Sapiens)
- reduction of NM23-D mRNA levels compared to control [6]: approximately 50%
- OVCAR-3: increased sensitivity to cis-platin [7]: yes
- 429: increased sensitivity to cis-platin [4]: yes

Compound: RNPS1 siRNA #1: siRNA to RNPS1; target sequence AATATTCATACGGCATGGACT (guide SDNAATATTCATACGGCATGGACT; target site or template, no part of the molecule; listed as DNA, chemistry not given here; listed as Homo Sapiens)
- 429: increased sensitivity to cis-platin [4]: yes
- reduction in the level of RNPS1 mRNA [8]: 35%

Compound: S100A11 siRNA #1: siRNA to S100A11; AA AGG ATG GTT ATA ACT ACA C (guide AAAGGATGGTTATAACTACAC; target site or template, no part of the molecule; listed as DNA, chemistry not given here; listed as Homo Sapiens)
- knockdown of S100A11 gene expression levels [9]: 50%

Compound: S100A11 siRNA #2: siRNA to S100A11; AA GAA ACT GGA CAC CAA CAG T (guide AAGAAACTGGACACCAACAGT; target site or template, no part of the molecule; listed as DNA, chemistry not given here; listed as Homo Sapiens)
- knockdown of S100A11 gene expression levels [9]: 25%

Compound: SAPK/Erk1 siRNA #2: siRNA to SAPK/Erk1; target sequence AAGCGCATCACGACAAGGATA (guide AAGCGCATCACGACAAGGATA; target site or template, no part of the molecule; listed as DNA, chemistry not given here; listed as Homo Sapiens)
- OVCAR-3: increased sensitivity to cis-platin [7]: yes
- 429: increased sensitivity to cis-platin [4]: yes
- reduction in the level of SAPK mRNA [10]: 60%

Compound: SRB1 siRNA #1: siRNA to SRB1; target sequence AAGCAGCAGGTCCTTAAGAAC (guide AAGCAGCAGGTCCTTAAGAAC; target site or template, no part of the molecule; listed as DNA, chemistry not given here; listed as Homo Sapiens)
- reduction in the level of SRB1 mRNA [11]: 60%
- OVCAR-3: increased sensitivity to cis-platin [7]: yes
- 429: increased sensitivity to cis-platin [4]: yes

Compound: SRB1 siRNA #3: siRNA to SRB1; target sequence AATTCAGAACGTCAGCACCTG (guide AATTCAGAACGTCAGCACCTG; target site or template, no part of the molecule; listed as DNA, chemistry not given here; listed as Homo Sapiens)
- reduction in the level of SRB1 mRNA [11]: successful in reducing the expression of SRB1

Compound: WDR1 siRNA #1: siRNA to WDR1; target sequence AATGGAAAGTGCGTCATCCTA (guide AATGGAAAGTGCGTCATCCTA; target site or template, no part of the molecule; listed as DNA, chemistry not given here; listed as Homo Sapiens)
- reduction of WDR1 mRNA levels compared to control [12]: approximately 85%
- OVCAR-3: increased sensitivity to cis-platin [7]: yes
- 429: increased sensitivity to cis-platin [4]: no

Compound: WDR1 siRNA #2: siRNA to WDR1; target sequence AAGTTCACAATTGGCGACCAC (guide AAGTTCACAATTGGCGACCAC; target site or template, no part of the molecule; listed as DNA, chemistry not given here; listed as Homo Sapiens)
- reduction of WDR1 mRNA levels compared to control [12]: approximately 75%

Compound: WDR1 siRNA #3: siRNA to WDR1; target sequence AAGTGCTTCAGCATCGACAAC (guide AAGTGCTTCAGCATCGACAAC; target site or template, no part of the molecule; listed as DNA, chemistry not given here; listed as Homo Sapiens)
- reduction of WDR1 mRNA levels compared to control [12]: approximately 70%

Compound: eEF1ε siRNA #1: siRNA to eEF1ε; target sequence AACAGGATTGACTACTATAGC (guide AACAGGATTGACTACTATAGC; target site or template, no part of the molecule; listed as DNA, chemistry not given here; listed as Homo Sapiens)
- reduction in the level of eEF1ε mRNA [13]: 65%

Compound: eEF1ε siRNA #2: siRNA to eEF1ε; target sequence AATACAGGGTCACTCAAGTAG (guide AATACAGGGTCACTCAAGTAG; target site or template, no part of the molecule; listed as DNA, chemistry not given here; listed as Homo Sapiens)
- reduction in the level of eEF1ε mRNA [13]: successful in reducing the expression of eEF1ε

Compound: eIF2Bε siRNA #1: siRNA to e-IF2Bε; target sequence AATGTGGTTCGAATAATTACA (guide AATGTGGTTCGAATAATTACA; target site or template, no part of the molecule; listed as DNA, chemistry not given here; listed as Homo Sapiens)
- OVCAR-3: increased sensitivity to cis-platin [7]: yes
- reduction in the level of e-IF2Bε mRNA [14]: 57%
- 429: increased sensitivity to cis-platin [4]: yes

Compound: eIF2Bε siRNA #2: siRNA to e-IF2Bε; target sequence AAACTCGAGATGACTTTGTGC (guide AAACTCGAGATGACTTTGTGC; target site or template, no part of the molecule; listed as DNA, chemistry not given here; listed as Homo Sapiens)
- reduction in the level of e-IF2Bε mRNA [14]: 54%

Compound: eIF2Bε siRNA #3: siRNA to e-IF2Bε; target sequence AATCAACAGCTGCAGAGGTTC (guide AATCAACAGCTGCAGAGGTTC; target site or template, no part of the molecule; listed as DNA, chemistry not given here; listed as Homo Sapiens)
- reduction in the level of e-IF2Bε mRNA [14]: 43%
